Measured values reported in US7396846B2, “Growth hormone secretagogues” (Eli Lilly and Company, priority 2002, dated 2008).
Counter-ions that a name gives are not always drawn.

tested on: pituitary cells; assay: Pituitary Cell Culture Assay for Growth Hormone (GH) Secretion; assay type: cell-based; conditions: 0.75 h; stimulation of GH secretion, cultured rat anterior pituitary cells, 45 min at room temperature, rat GH radioimmunoassay
From the text: Growth hormone secretagogue activity can be determined using a typical assay which may employ pituitary cells established in culture, followed by a challenge with the various compounds of formula I, and the levels of growth hormone determined accordingly. Growth hormone levels may be calculated using various radioimmunoassay techniques known to those of skill in the art. One example of such an assay is detailed herein.
Pituitary Cell Culture Assay for Growth Hormone (GH) Secretion
Fifteen 250 g male Sprague-Dawley rats are used for each assay. The animals are killed by decapitation and anterior pituitaries are removed and placed into ice cold culture medium. The pituitaries are sectioned in small pieces and enzymatically digested using trypsin (Difco) to weaken connective tissue. Pituitary cells are dispersed by mechanical agitation, collected, pooled and then seeded into 96-well plates (50,000 cells/well). After 5 days of culture, the cells formed as monolayer (70-80% confluent). Cells are then washed with medium (without phenol red) and incubated for 90 min at 37° C. Afterwards the cells are challenged to secrete GH by the addition of GH secretagogues to the medium. After 45 min at room temperature, the medium is removed, filtered and stored frozen until radioimmunoassays for rat GH were performed. Doses of secretagogue are added in triplicates. Compounds disclosed herein are active in the assay as described. The compounds cause a stimulation of GH secretion resulting in at least 20% increase of the basal level of GH with and EC50<500 nM. […] Both EC50 and efficacy values were calculated by the 4-parameter logistic equation. Such values were pooled and represented as mean+/−standard error, when appropriate.

**Q.** `CCN(CC1=C(c2ccc(S(C)(=O)=O)cc2)S(=O)(=O)NC12CCCCC2)C(=O)[C@@H](COCc1cc(F)cc(F)c1)NC(=O)C(C)(C)N` [Example 5, 2-(R)-2-(2-Amino-2-methylpropionylamino)-3-(3,5-difluorophenyl)methoxypropionic acid N-ethyl-N-(3-(4-methanesulfonyl-phenyl)-2,2-dioxo-2-thia-1-azaspiro[4.5]dec-3-ene-4-ylmethyl)amide Hydrochloride] was tested. Which EC50 did it give?
**A.** 0.6 nM

**Q.** Which EC50 does the source give for `CCN(CC1=C(c2ccc(S(C)(=O)=O)cc2)S(=O)(=O)NC12CCCCC2)C(=O)[C@@H](COCc1cc(F)ccc1F)NC(=O)C(C)(C)N` [Example 2, 2-(R)-2-(2-Amino-2-methylpropionylamino)-3-(2,5-difluorophenyl)methoxypropionic acid N-ethyl-N-(3-(4-methanesulfonyl-phenyl)-2,2-dioxo-2-thia-1-azaspiro[4.5]dec-3-ene-4-ylmethyl)amide Hydrochloride] here?
**A.** 0.23 nM

**Q.** With `CN(CC1=C(c2ccc(Cl)cc2)S(=O)(=O)NC1(C)C)C(=O)[C@@H](COCc1ccc(F)cc1)NC(=O)C(C)(C)N` [Example 7, 2-(R)-2-(2-Amino-2-methylpropionylamino)-3-(4-fluorophenyl)methoxy propionic acid N-[5-(4-chlorophenyl)-3,3-dimethyl-1,1-dioxo-2,3-dihydroisothiazol-4-ylmethyl]-N-methylamide Hydrochloride] as the compound, how does the EC50 read?
**A.** 1.7 nM

**Q.** `CCN(CC1=C(c2ccc(S(C)(=O)=O)cc2)S(=O)(=O)NC12CCCCC2)C(=O)[C@@H](COCc1ccc(F)c(F)c1)NC(=O)C(C)(C)N` [Example 4, 2-(R)-2-(2-Amino-2-methylpropionylamino)-3-(3,4-difluorophenyl)methoxypropionic acid N-ethyl-N-(3-(4-methanesulfonyl-phenyl)-2,2-dioxo-2-thia-1-azaspiro[4.5]dec-3-ene-4-ylmethyl)amide Hydrochloride] was tested. Which EC50 did it give?
**A.** 0.9 nM

same assay, conditions: stimulation of GH secretion, cultured rat anterior pituitary cells, 45 min at room temperature, rat GH radioimmunoassay

**Q.** For `CCN(CC1=C(c2ccc(Cl)cc2)S(=O)(=O)NC1(C)C)C(=O)[C@@H](COCc1ccc(F)cc1F)NC(=O)C(C)(C)N` [Example 12, 2-(R)-2-(2-Amino-2-methylpropionylamino)-3-(2,4-difluorophenyl)methoxy propionic acid N-[5-(4-chlorophenyl)-3,3-dimethyl-1,1-dioxo-2,3-dihydroisothiazol-4-ylmethyl]-N-ethylamide Hydrochloride], which EC50 is on record?
**A.** 8 nM

**Q.** For `CCN(CC1=C(c2ccc(Cl)cc2)S(=O)(=O)NC1(C)C)C(=O)[C@@H](COCc1c(F)cccc1F)NC(=O)C(C)(C)N` [Example 16, 2-(R)-2-(2-Amino-2-methylpropionylamino)-3-(2,6-difluorophenyl)methoxy propionic acid N-[5-(4-chlorophenyl)-3,3-dimethyl-1,1-dioxo-2,3-dihydroisothiazol-4-ylmethyl]-N-ethylamide Hydrochloride], which EC50 is on record?
**A.** 1.1 nM

**Q.** With `CCN(CC1=C(c2ccc(Cl)cc2)S(=O)(=O)NC1(C)C)C(=O)[C@@H](COCc1cc(F)ccc1F)NC(=O)C(C)(C)N` [Example 15, 2-(R)-2-(2-Amino-2-methylpropionylamino)-3-(2,5-difluorophenyl)methoxy propionic acid N-[5-(4-chlorophenyl)-3,3-dimethyl-1,1-dioxo-2,3-dihydroisothiazol-4-ylmethyl]-N-ethylamide Hydrochloride] as the compound, how does the EC50 read?
**A.** 2.1 nM
